Measured values as given in PubChem BioAssay (NCI).
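Where inhibition never reached the appropriate level, the endpoint shown equals the highest concentration tested. Otherwise, values were interpolated linearly from a five-concentration, 48-hour dose response in 96-well plates. GI50 = concentration required for 50% inhibition of growth. TGI denotes the concentration required for complete inhibition of growth.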

Tests used:
Experiment in all cases: inhibition of tumour cell growth, NCI panel, 48 h
LOX IMVI melanoma = tested on: LOX IMVI melanoma
HL-60(TB) leukemia = tested on: HL-60(TB) leukemia
UACC-62 melanoma = tested on: UACC-62 melanoma
A498 renal = tested on: A498 renal
SW-620 colon = tested on: SW-620 colon
NCI-H226 lung = tested on: NCI-H226 lung
OVCAR-3 ovarian = tested on: OVCAR-3 ovarian
NCI/ADR-RES ovarian = tested on: NCI/ADR-RES ovarian
CCRF-CEM leukemia = tested on: CCRF-CEM leukemia
HS 578T breast = tested on: HS 578T breast
786-0 renal = tested on: 786-0 renal
BT-549 breast = tested on: BT-549 breast

| SMILES | TGI (LOX IMVI melanoma) [µM] | TGI (HL-60(TB) leukemia) [µM] | TGI (UACC-62 melanoma) [µM] | TGI (A498 renal) [µM] | TGI (SW-620 colon) [µM] | TGI (NCI-H226 lung) [µM] | TGI (OVCAR-3 ovarian) [µM] | TGI (NCI/ADR-RES ovarian) [µM] | TGI (CCRF-CEM leukemia) [µM] | TGI (HS 578T breast) [µM] | TGI (786-0 renal) [µM] | TGI (BT-549 breast) [µM] | GI50 (HS 578T breast) [µM] | GI50 (LOX IMVI melanoma) [µM] | GI50 (A498 renal) [µM] | GI50 (SW-620 colon) [µM] | GI50 (NCI-H226 lung) [µM] | GI50 (OVCAR-3 ovarian) [µM] | GI50 (NCI/ADR-RES ovarian) [µM] |
| --- | --- | --- | --- | --- | --- | --- | --- | --- | --- | --- | --- | --- | --- | --- | --- | --- | --- | --- | --- |
| CC(=O)/C=C/c1c[nH]c(=O)[nH]c1=O | 354 | 528 | 574 | 566 | 696 | 565 | 608 | 781 | 649 | – | – | – | – | – | – | – | – | – | – |
| O=C(O)c1cc2c(cc1S(=O)(=O)O)C1C(C3C2C2(Cl)C(Cl)=C(Cl)C3(Cl)C2(Cl)Cl)C2(Cl)C(Cl)=C(Cl)C1(Cl)C2(Cl)Cl (centres undefined) | – | 79.9 | 46.9 | > 100 | > 100 | 49 | > 100 | > 100 | 37.3 | > 100 | > 100 | > 100 | – | – | – | – | – | – | – |
| O=C(c1ccc(Cl)cc1)N(C(=S)N1CCN(c2ccccc2)CC1)c1ccccc1 | > 100 | > 100 | > 100 | – | > 100 | > 100 | > 100 | – | > 100 | – | > 100 | – | – | – | – | – | – | – | – |
| CCCCN(CCCC)c1ccc(N=Nc2ccc(S(=O)(=O)O)cc2)cc1 | 42.8 | 53.1 | > 100 | > 100 | > 100 | – | > 100 | 70.9 | 38.4 | – | – | > 100 | – | – | – | – | – | – | – |
| O=C(/C(Cl)=C/c1ccccc1)c1ccccc1 | 8.8 | – | 22.9 | 46.1 | – | 18.1 | 8.36 | 19.4 | 11.5 | 15 | 3.37 | 6.49 | – | – | – | – | – | – | – |
| CC1CSc2nc3[nH]c(=S)[nH]c3c(=O)n2C1 (centres undefined) | > 100 | > 100 | > 100 | > 100 | > 100 | > 100 | > 100 | > 100 | > 100 | – | > 100 | > 100 | – | – | – | – | – | – | – |
| C/C=C/OC1C(C2COC(C)(C)O2)OC2OC(C)(C)OC21 (centres undefined) | > 100 | > 100 | – | > 100 | > 100 | – | > 100 | > 100 | > 100 | > 100 | > 100 | – | – | – | – | – | – | – | – |
| C=CCC1(O)c2cccc(O)c2C(=O)c2cccc(O)c21 (centres undefined) | 30.9 | 34.2 | – | 37 | > 100 | 74.3 | 59.7 | 40.2 | – | 41.8 | 46.1 | 47.4 | – | – | – | – | – | – | – |
| C[C@@H]1CCN(C(=O)CC#N)C[C@@H]1N(C)c1ncnc2[nH]ccc12 | > 100 | – | – | > 100 | > 100 | > 100 | > 100 | > 100 | – | > 100 | – | – | 30.4 | > 100 | 23.3 | > 100 | 20.9 | > 100 | > 100 |
| CC1=NN(C(=O)CC(=O)Nc2cccc(Cl)c2)C(=O)C1N=Nc1ccc(S(=O)(=O)c2ccc(N=NC3C(=O)N(C(=O)CC(=O)Nc4cccc(Cl)c4)N=C3C)cc2)cc1 (centres undefined) | > 100 | > 100 | > 100 | – | > 100 | > 100 | > 100 | > 100 | > 100 | > 100 | > 100 | > 100 | – | – | – | – | – | – | – |
| CCOC(=O)CC[C@@H](NC(=O)c1ccc(NCc2ccc3nc(OC)c(OC)nc3c2)cc1)C(=O)OCC | > 100 | > 100 | 32 | – | > 100 | > 100 | 38.3 | > 100 | > 100 | > 80.9 | > 100 | > 100 | – | – | – | – | – | – | – |
| O/N=C1\CC2(N3CCOCC3)CCC1(Cc1ccccc1)CC2 | > 100 | > 100 | – | 88.9 | > 100 | 83.1 | > 100 | > 100 | > 100 | – | 41.9 | – | – | – | – | – | – | – | – |
| C/C(=N/NC(=S)N(Cc1ccccn1)Cc1ccccn1)c1cnccn1 | 0.447 | > 68.2 | – | > 100 | 49.2 | 0.157 | 12.6 | – | > 100 | 55.7 | 7.97 | 12.7 | – | – | – | – | – | – | – |
| Cc1ccc(NC(=S)NNC(=O)c2cc(-c3ccccc3)nc3ccccc23)cc1C | – | – | 37 | 34.2 | > 100 | 90.1 | – | 49.1 | 52 | > 100 | 33.7 | 44.2 | – | – | – | – | – | – | – |
| CC1(C)SC2C(NC(=O)Cc3ccccc3)C(=O)N2C1C(=O)O (centres undefined) | > 100 | > 100 | > 100 | > 100 | > 100 | > 100 | > 100 | > 100 | – | > 100 | > 100 | > 100 | – | – | – | – | – | – | – |
| CCCCCC(/C=N/NC(N)=S)C(O)(C(F)(F)F)C(F)(F)F (centres undefined) | > 10 | – | > 10 | > 10 | > 10 | > 10 | > 10 | > 10 | > 10 | > 10 | > 10 | > 10 | – | – | – | – | – | – | – |
| CSc1nc(-c2cc3c(c(SC)n2)CCC3)cc2c1CCC2 | – | > 100 | > 100 | > 100 | > 100 | > 100 | > 100 | > 100 | > 100 | – | > 100 | > 100 | – | – | – | – | – | – | – |
| COc1ccc(S(=O)Cc2cc(OC)ccc2OC)cc1 (centres undefined) | > 100 | – | > 100 | > 100 | > 100 | > 100 | > 100 | > 100 | > 100 | – | > 100 | > 100 | – | – | – | – | – | – | – |
| Cn1c2c(c3ccccc31)CC(=O)N1CCCCC1C21OCCO1 (centres undefined) | – | – | > 100 | > 100 | > 100 | > 100 | > 100 | > 100 | > 100 | > 100 | > 100 | > 100 | – | – | – | – | – | – | – |
| Cc1ccc(-c2c(C#N)c(S)n(NS(=O)(=O)c3ccccc3)c(=O)c2C#N)cc1 | > 100 | 41.9 | > 100 | > 100 | 70 | 69 | > 100 | 39.8 | > 100 | – | > 100 | 73.3 | – | – | – | – | – | – | – |
